Counter-ions that a name gives are not always drawn.

What all share (format): biochemical
Assay [1] addresses TNF-α converting enzyme (TACE) (Homo sapiens, UniProt P78536). Briefly: Test procedure for measuring TACE inhibition (fluorescent peptidyl substrate). As for the experimental part: Using 96-well black microtiter plates, each well receives a solution composed of 10 μL TACE (final concentration 1 μg/mL), 70 μL Tris buffer, pH 7.4 containing 10% glycerol (final concentration 10 mM), and 10 μL of test compound solution in DMSO (final concentration 1 μM, DMSO concentration <1%) and incubated for 10 minutes at room temperature. The reaction is initiated by addition of a fluorescent peptidyl substrate (final concentration 100 μM to each well and then shaking on a shaker for 5 sec.
The reaction is read (excitation 340 nm, emission 420 nm) for 10 min. and the increase in fluorescence over time is plotted as a linear line. The slope of the line is calculated and represents the reaction rate.
The mean (x±sem) of the control rate is calculated and compared for statistical significance (p<0.05) with drug-treated rates using Dunnett's multiple comparison test.

The target of assay [2] is MMP-13 (Homo sapiens, UniProt P45452). Briefly: MMP-13 inhibition (thiopeptide or fluorescent peptide substrate). As to conditions: for IC50: read-out: MMP13 IC50; for MMP13 % inhibition: MMP13 IC50, concentration not given. How it is done:
The enzyme activity is measured by the rate of the color increase. The thiopeptide substrate is made up fresh as a 20 mM stock in 100% DMSO and the DTNB is dissolved in 100% DMSO as a 100 mM stock and stored in the dark at room temperature. Both the substrate and DTNB are diluted together to 1 mM with substrate buffer (50 mM HEPES pH 7.5, 5 mM CaCl2) before use. The stock of enzyme is diluted with buffer (50 mM HEPES, pH 7.5, 5 mM CaCl2, 0.02% Brij) to the desired final concentration.
(§1) Alternatively, a fluorescent peptide substrate is used. In this test procedure, the peptide substrate contains a fluorescent group and a quenching group. Upon cleavage of the substrate by an MMP, the fluorescence that is generated is quantitated on the fluorescence plate reader. The assay is run in HCBC assay buffer (50 mM HEPES, pH 7.0, 5 mM Ca^+2, 0.02% Brij, 0.5% Cysteine), with human recombinant MMP-1, MMP-9, or MMP-13. The substrate is dissolved in methanol and stored frozen in 1 mM aliquots. For the assay, substrate and enzymes are diluted in HCBC buffer to the desired concentrations. Compounds are added to the 96 well plate containing enzyme and the reaction is started by the addition of substrate.
For either the thiopeptide or fluorescent peptide test procedures, the slope of the line is calculated and represents the reaction rate. […] The mean (x±sem) of the control rate is calculated and compared for statistical significance (p<0.05) with drug-treated rates using Dunnett's multiple comparison test.

For assay [3], the target named is MMP-9 (Homo sapiens, UniProt P14780). The assay is described as follows: MMP-9 inhibition (thiopeptide or fluorescent peptide substrate). How it is done: (§2) These standard pharmacological test procedures are based on the cleavage of a thiopeptide substrates such as Ac-Pro-Leu-Gly(2-mercapto-4-methyl-pentanoyl)-Leu-Gly-OEt by the matrix metalloproteinases MMP-1, MMP-13 (collagenases) or MMP-9 (gelatinase), which results in the release of a substrate product that reacts colorimetrically with DTNB (5,5′-dithiobis(2-nitro-benzoic acid)). The enzyme activity is measured by the rate of the color increase. The thiopeptide substrate is made up fresh as a 20 mM stock in 100% DMSO and the DTNB is dissolved in 100% DMSO as a 100 mM stock and stored in the dark at room temperature. Both the substrate and DTNB are diluted together to 1 mM with substrate buffer (50 mM HEPES pH 7.5, 5 mM CaCl2) before use. The stock of enzyme is diluted with buffer (50 mM HEPES, pH 7.5, 5 mM CaCl2, 0.02% Brij) to the desired final concentration. The buffer, enzyme, vehicle or inhibitor, and DTNB/substrate are added in this order to a 96 well plate (total reaction volume of 200 μl) and the increase in color is monitored spectrophotometrically for 5 minutes at 405 nm on a plate reader and the increase in color over time is plotted as a linear line.
as §1, with “substrate. The reaction is read (excitation 340 nm, emission 444 nm) for 10 min. and the increase in fluorescence over time is plotted as a linear line.” for “substrate.”
(§3) For either the thiopeptide or fluorescent peptide test procedures, the slope of the line is calculated and represents the reaction rate. The linearity of the reaction rate is confirmed (r^2>0.85). The mean (x±sem) of the control rate is calculated and compared for statistical significance (p<0.05) with drug-treated rates using Dunnett's multiple comparison test. Dose-response relationships can be generated using multiple doses of drug and IC50 values with 95% CI are estimated using linear regression.

Assay [4] concerns the target T1, MMP-1 (Homo sapiens, UniProt P03956).
T1 sequence (P03956 100-469): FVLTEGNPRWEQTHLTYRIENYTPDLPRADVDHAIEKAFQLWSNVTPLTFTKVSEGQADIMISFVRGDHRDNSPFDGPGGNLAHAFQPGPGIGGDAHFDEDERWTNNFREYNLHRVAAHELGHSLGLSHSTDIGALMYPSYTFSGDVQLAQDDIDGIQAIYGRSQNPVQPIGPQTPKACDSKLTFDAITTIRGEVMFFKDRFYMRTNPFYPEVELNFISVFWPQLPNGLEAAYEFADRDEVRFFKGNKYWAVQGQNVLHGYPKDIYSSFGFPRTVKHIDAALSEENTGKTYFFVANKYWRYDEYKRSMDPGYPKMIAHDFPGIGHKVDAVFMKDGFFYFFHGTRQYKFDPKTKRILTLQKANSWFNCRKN
The assay is described as follows: MMP-1 inhibition (thiopeptide or fluorescent peptide substrate). As to conditions: printed in the MMP1 IC50 column; concentration not given. How it is done:
as §2
as §1, with “substrate. The reaction is read (excitation 340 nm, emission 444 nm) for 10 min. and the increase in fluorescence over time is plotted as a linear line.” for “substrate.”
as §3

Chain of TNF-α converting enzyme (TACE) (P78536 215-824): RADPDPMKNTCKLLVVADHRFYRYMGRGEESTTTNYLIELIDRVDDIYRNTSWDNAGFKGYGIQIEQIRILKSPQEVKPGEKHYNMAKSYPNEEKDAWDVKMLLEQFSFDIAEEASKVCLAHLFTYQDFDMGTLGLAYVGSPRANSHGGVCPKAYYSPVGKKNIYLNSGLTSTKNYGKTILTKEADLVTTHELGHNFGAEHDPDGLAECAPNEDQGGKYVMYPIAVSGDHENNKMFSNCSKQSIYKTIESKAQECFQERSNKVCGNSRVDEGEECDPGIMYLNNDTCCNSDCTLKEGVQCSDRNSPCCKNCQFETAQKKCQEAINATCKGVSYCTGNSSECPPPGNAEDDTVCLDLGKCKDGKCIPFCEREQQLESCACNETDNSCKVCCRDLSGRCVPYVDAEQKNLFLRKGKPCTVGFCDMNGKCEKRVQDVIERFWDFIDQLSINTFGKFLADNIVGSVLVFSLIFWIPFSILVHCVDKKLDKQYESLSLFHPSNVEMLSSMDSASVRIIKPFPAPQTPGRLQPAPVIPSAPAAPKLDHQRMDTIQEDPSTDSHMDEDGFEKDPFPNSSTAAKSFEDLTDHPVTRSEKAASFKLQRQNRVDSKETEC
Chain of MMP-9 (P14780 94-707): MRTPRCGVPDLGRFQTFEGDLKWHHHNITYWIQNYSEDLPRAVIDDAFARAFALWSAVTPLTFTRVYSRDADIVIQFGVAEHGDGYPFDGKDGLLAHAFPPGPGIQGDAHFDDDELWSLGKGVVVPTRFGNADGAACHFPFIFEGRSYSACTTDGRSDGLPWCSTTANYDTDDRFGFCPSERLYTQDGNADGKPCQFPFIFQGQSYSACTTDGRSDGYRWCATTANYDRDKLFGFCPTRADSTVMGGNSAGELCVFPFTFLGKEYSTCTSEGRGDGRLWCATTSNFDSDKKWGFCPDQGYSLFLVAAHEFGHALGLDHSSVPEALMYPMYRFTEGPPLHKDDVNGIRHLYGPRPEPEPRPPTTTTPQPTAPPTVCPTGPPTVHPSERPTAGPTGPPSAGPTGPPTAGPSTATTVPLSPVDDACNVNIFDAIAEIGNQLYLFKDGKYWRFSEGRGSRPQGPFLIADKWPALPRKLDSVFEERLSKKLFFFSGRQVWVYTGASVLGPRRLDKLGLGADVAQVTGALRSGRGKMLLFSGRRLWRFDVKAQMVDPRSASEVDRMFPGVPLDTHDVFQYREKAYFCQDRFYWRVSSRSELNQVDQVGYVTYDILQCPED

For the compound `CC#CCOc1ccc(S(=O)(=O)CC2(C(=O)NO)CCN(Cc3ccc(Cl)s3)CC2)cc1` [Example 47, 4-({[4-(But-2-ynyloxy)phenyl]sulfonyl}methyl)-1-[(5-chlorothien-2-yl)methyl]-N-hydroxypiperidine-4-carboxamide triflouroacetic acid salt], the IC50 in assay [1] was 227 nM; in assay [2], 275 nM.
Take `CC#CCOc1ccc(S(=O)(=O)CC2(C(=O)NO)CCN(C(=O)c3ccccc3)CC2)cc1` [Example 50, 1-Benzoyl-4-({[4-(but-2-ynyloxy)phenyl]sulfonyl}-methyl)-N-hydroxypiperidine-4-carboxamide]: the IC50 in assay [2] turned out to be 352 nM.
As to `CC#CCOc1ccc(S(=O)(=O)CC2(C(=O)NO)CCN(C(=O)Oc3ccc(OC)cc3)CC2)cc1` [Example 58, 4-Methoxyphenyl-4-({[4-(but-2-ynyloxy)phenyl]sulfonyl}methyl)-4-[(hydroxyamino)carbonyl]piperidine-1-carboxylate], the concentration for half-maximal inhibition (IC50) in assay [1] was found to be 21.1 nM; in assay [2], 179 nM.
In the case of `CC#CCOc1ccc(S(=O)(=O)CC2(C(=O)NO)CCN(C(=O)N(C)c3ccccc3)CC2)cc1` [Example 56, 4-({[4-(But-2-ynyloxy)phenyl]sulfonyl}methyl)-N-4-hydroxy-N-1-methyl-N-1-phenylpiperidine-1,4-dicarboxamide], the IC50 in assay [2] turned out to be 3.2 nM.
For `CC#CCOc1ccc(S(=O)(=O)CC2(C(=O)NO)CCN(C(=O)c3cccnc3)CC2)cc1` [Example 49, 4-({[4-(But-2-ynyloxy)phenyl]sulfonyl}methyl)-N-hydroxy-1-(pyridin-3-ylcarbonyl)piperidine-4-carboxamide triflouroacetic acid salt], the IC50 in assay [1] amounted to 32.6 nM; in assay [2] it was 1730 nM.
Take `CC#CCOc1ccc(S(=O)(=O)CC2(C(=O)NO)CCN(S(=O)(=O)c3cn(C)cn3)CC2)cc1` [Example 60, 4-({[4-(But-2-ynyloxy)phenyl]sulfonyl}methyl)-N-hydroxy-1-1-[(1-methyl-1H-imidazol-4-yl)-sulfonyl]piperidine-4-carboxamide]: the IC50 stood at 38.4 nM in assay [1] and 8 nM in assay [2].
Take `CC#CCOc1ccc(S(=O)(=O)CC2(C(=O)NO)CCN(S(=O)(=O)c3ccccc3)CC2)cc1` [Example 59, 4-({[4-(But-2-ynyloxy)phenyl]sulfonyl}methyl)-N-hydroxyl-(phenylsulfonyl)piperidine-4-carboxamide]: the values for the IC50 in assay [1] and in assay [2] were 53.3 nM and 11.2 nM, respectively.
Taken in the same sequence, the figures for `CC#CCOc1ccc(S(=O)(=O)CC2(C(=O)NO)CCN(C(=O)CNCc3ccccc3)CC2)cc1` [Example 61, 1-[2-(Benzylamino)acetyl]-4-({[4-(but-2-ynyloxy)phenyl]sulfonyl}methyl)-N-hydroxypiperidine-4-carboxamide] were 56.4 nM and 575 nM.
For `CC#CCOc1ccc(S(=O)(=O)CC2(C(=O)NO)CCN(C(=O)CN3CCN(C)CC3)CC2)cc1` [Example 63, 4-({[4-(But-2-ynyloxy)phenyl]sulfonyl}methyl)-N-hydroxy-1-[2-(4-methylpiperazin-1-yl)acetyl]piperidine-4-carboxamide], the figures for the IC50 in assay [1] and in assay [2] were 66.6 nM and 2230 nM, respectively.
As for `CCCCCC#CCOc1ccc(S(=O)(=O)C2(C(=O)NO)CCN(Cc3ccc(Br)cc3)CC2)cc1` [Example 6, 1-(4-Bromo-benzyl)-4-(4-oct-2-ynyloxy-benzenesulfonyl)-piperdine-4-carboxylic acid hydroxyamide], the IC50 in assay [1] worked out at 393 nM. This compound showed an MMP9 % inhibition in assay [3] (printed in the MMP9 IC50 column, concentration not given) of 58.9%. The MMP1 % inhibition in assay [4] amounted to 32.9%. Moreover, the MMP13 % inhibition in assay [2] is given as 60%.
Consider `CC#CCOc1ccc(S(=O)(=O)CC2(C(=O)NO)CCN(C(=O)OCCCCCCCC)CC2)cc1` [Example 57, Octyl-4-({[4-(but-2-ynyloxy)phenyl]sulfonyl}methyl)-4-[(hydroxyamino)-carbonyl]piperidine-1-carboxylate], for which the IC50 is 694 nM in assay [1] and 458 nM in assay [2].
With `CC#CCOc1ccc(S(=O)(=O)CC2(C(=O)NO)CCN(C(=O)Nc3ccccc3)CC2)cc1` [Example 53, 4-({[4-(But-2-ynyloxy)phenyl]sulfonyl}methyl)-N-4-hydroxy-N-1-phenyl-piperidine-1,4-dicarboxamide], the IC50 in assay [1] worked out at 20.8 nM; in assay [2], 1160 nM.
The compound `CC#CCOc1ccc(SC2(C(=O)NO)CCN(Cc3ccc(Br)cc3)CC2)cc1` [Example 16, 1-(4-Bromo-benzyl)-4-(4-but-2-ynyloxy-phenylsulfanyl)-piperidine-4-carboxylic acid hydroxyamide] had an inhibition at 1 µM in assay [1] of 46%. Moreover, the IC50 in assay [3] (read-out: MMP9 IC50) was 2060 nM; in assay [2], 1470 nM.
Turning to `CC#CCOc1ccc(S(=O)(=O)CC2(C(=O)NO)CCN(C(=O)NCC)CC2)cc1` [Example 52, 4-({[4-(But-2-ynyloxy)phenyl]sulfonyl}methyl)-N-1-ethyl-N-4-hydroxypiperidine-1,4-dicarboxamide], the values for the IC50 in assay [1] and in assay [2] were 41.8 nM and 3710 nM, respectively.
Taken in the same sequence, the figures for `CC#CCOc1ccc(S(=O)(=O)CC2(C(=O)NO)CCN(C(=O)N(CC)CC)CC2)cc1` [Example 54, 4-({[4-(But-2-ynyloxy)phenyl]sulfonyl}methyl)-N-1-,N-1-diethyl-N-4-hydroxypiperidine-1,4-dicarboxamide] were 32.2 nM and 104 nM.
The corresponding values for `CC#CCOc1ccc(S(=O)(=O)CC2(C(=O)NO)CCN(C(=O)N3CCOCC3)CC2)cc1` [Example 55, 4-({[4-(But-2-ynyloxy)phenyl]sulfonyl}methyl)-N-hydroxy-1-(morpholin-4-ylcarbonyl)piperdine-4-carboxamide] are 70.7 nM and 600 nM.
In assay [1], `CC#CCOc1ccc(S(=O)(=O)CC2(C(=O)NO)CCN(CC)CC2)cc1` [Example 46, 4-({[4-(But-2-ynyloxy)phenyl]sulfonyl}methyl)-1-ethyl-N-hydroxypiperidine-4-carboxamide triflouroacetic acid salt] displayed an IC50 of 105 nM. The same compound gave an MMP13 % inhibition in assay [2] of 55.6%.

The record behind these values is US6753337B2, “Alkynyl containing hydroxamic acid compounds as matrix metalloproteinase/tace inhibitors” (Wyeth Holdings Corporation, priority 1999, dated 2004).
